{
  "source": "paper PMC5665643",
  "about": "“CHIP as a membrane-shuttling proteostasis sensor” (eLife, 2017)",
  "molecules": {"B1": {"name": "TPR domain: glutamate152 codon exchanged to a stop codon in full-length CHIP (protein, UniProt Q9UNE7 1-151, looked up, fragment)", "chain": "MKGKEEKEGGARLGAGGGSPEKSPSAQELKEQGNRLFVGRKYPEAAACYGRAITRNPLVAVYYTNRALCYLKMQQHEQALADCRRALELDGQSVKAHFFLGQCQLEMESYDEAIANLQRAYSLAKEQRLNFGDDIPSALRIAKKKRWNSIE", "modifications": "TPR domain", "notes": "glutamate152 codon exchanged to a stop codon in full-length CHIP"}, "B2": {"name": "C-terminal HSP70 octapeptide GPTIEEVD (peptide)", "peptide": "GPTIEEVD", "notes": "last eight residues of HSP70 (HSPA1A); also called HSP70 peptide; HSP70 C-terminal peptide; source: synthetic peptide (custom-synthetized by GenScript)"}},
  "key": {"[1]": {"test_system": "EGFP-CHIP in murine embryonic fibroblasts", "assay": "EGFP-CHIP relocalization to membranes in murine embryonic fibroblasts (fluorescence microscopy)", "type": "cell-based", "settings": "N = 3; for EGFP-CHIP relocalization to the plasma membrane: 20 μM inhibitor for 4 hr, 37°C, serum-free medium, without fixation, EGFP as control, ***p<0.001, chi-square"}, "[2]": {"test_system": "EGFP-CHIP-K30A in murine embryonic fibroblasts", "assay": "Release of EGFP-CHIP-K30A from cellular membranes (PLD inhibitors)", "type": "cell-based", "settings": "12 hr inhibitor treatment in serum-free DMEM, without fixation; *p<0.05 (chi-square); N = 4"}, "CHIP [3]": {"test_system": "CHIP", "assay": "Liposome pelleting assay, effect of lipids and HSP70-C on CHIP association", "type": "binding, Human", "experimental": "(§1) Human recombinant full length CHIP and its truncated versions were purified from Escherichia coli BL21 cells using Glutathion Sepharose 4B (GE Healthcare). Sepharose-bound GST-CHIP was subjected to overnight treatment with PreScission protease and the released tag-free protein was collected. Size exclusion chromatography on a HiLoad Superdex 200 column (GE Healthcare) followed to ensure the purity and homogeneity of proteins. All CHIP variants were kept in HSP70 buffer (25 mM HEPES KOH pH 7.5, 150 mM KCl, 5 mM MgCl2, 5% glycerol, 1 mM DTT).\nHuman C-terminal HSP70 6xHis-tagged N-terminally was purified from Escherichia coli BL21 cells using 1 ml HisTrap column (GE Healthcare). Bound protein was eluted by applying an imidazole gradient. Fractions containing the protein were subjected to size exclusion chromatography using HiLoad Superdex 200 in HSP70 buffer. His-NQO1, His-UbcH5a, His-Uev1a and His-Ubc13 were purified similarly except that PBS/1 mM DTT was used during size exclusion chromatography. Purity of recombinant protein was evaluated by SDS-PAGE and Coomassie BB G-250 (CBB) staining. Concentration of proteins was determined measuring absorbance at 280 nm and using ProtParam (ExPASy) to calculate respective extinction coefficients. Proteins were aliquoted, snap-frozen and stored at −80°C.\nLiposomes were prepared by mixing 1,2-dioleoyl-sn-glycero-3-phosphocholine (DOPC) with indicated amount (wt/wt) of either 1,2-dipalmitoyl-sn-glycero-3-phosphate (phosphatidic acid) or (wt/wt) 1,2-dipalmitoyl-sn-glycero-3-phosphoinositol-4-phosphate (PI4P) in a 1.5 ml reaction tube (Eppendorf). Lipid mixtures were dried under a nitrogen stream and kept for 1 hr under vacuum. Liposomes were rehydrated in 1 ml filtered reconstitution buffer (25 mM HEPES KOH pH 7.5, 50 mM NaCl) to a concentration of 10 mM lipids. Liposomes were reconstituted by shaking at 2000 rpm for 1 hr at 50°C, followed by sonication for 1 hr at 50°C in a water bath. The liposome suspension was subjected to five freeze-thaw cycles in liquid nitrogen to promote unilamellar vesicle formation, aliquoted in 200 µl and pulse-sonicated for 8 s at 45% output with MS72 sonotrode (Bandelin) to create a population of homogenously sized liposomes as determined using NanoSight (Malvern Instruments). Sonicated liposomes were pooled, aliquoted again, snap-frozen and stored at −80°C.\n2 mM liposomes were mixed with 2 µM recombinant protein in 50 µl reconstitution buffer. The suspension was incubated shaking at 450 rpm for 30 min at 37°C. Liposomes with bound protein were sedimented by ultracentrifugation at 100,000 g for 30 min at 25°C. Liposome pellet was washed with 50 µl of reconstitution buffer and sedimented again at 100,000 g for 30 min at 25°C. The pellet was resuspended in 10 µl reconstitution buffer, resolved by SDS-PAGE and analyzed by CBB staining. Images were acquired with ChemiDoc MP imaging system and quantified using Image Lab 5.0 software (both from Bio-Rad Laboratories). For competition assays, indicated amounts of C-terminal HSP70 were preincubated with 2 µM CHIP for 20 min at 37°C prior to co-sedimentation."}, "CHIP [4]": {"test_system": "CHIP", "assay": "Lipid-binding assay (membrane-immobilized lipids, lipid arrays)", "set-up": "species or system Human", "settings": "for CHIP binding to phospholipid on lipid array: lipid strips/PIP strips, 0.5 µg/ml wild-type chaperone-free CHIP, 1 hr at RT, anti-C-CHIP antibody", "experimental": "as §1\nMembrane-immobilized lipids (Membrane lipid strips P-6002 and PIP strips P-6001) were purchased from Echelon Research Laboratories. The strips were incubated with blocking buffer (3% fatty acid free BSA, 0.1% (v/v) Tween-20 in PBS pH 7.5) for 1 hr at RT. 0.5 µg/ml of purified wild-type or mutant CHIP was added in blocking buffer and incubated for 1 hr at RT. Strips were washed and bound proteins were detected using anti-C-CHIP antibody. For competition experiments, ten times molar excess of C-terminal HSP70 was added to CHIP in blocking buffer."}, "[5]": {"target": "C-terminal Hsp70-interacting protein (CHIP), human recombinant full length, wild type, tag-free (human) (UniProt Q9UNE7)"}, "[6]": {"assay": "Liposome pelleting assay, binding of CHIP and truncated variants to liposomes", "settings": "N = 3", "description": "For mammalian expression of EGFP, the expression vector pEGFP-N1 from Clontech (Mountain View, CA) was used. N-terminal EGFP-CHIP fusion protein was constructed by cloning human CHIP coding sequence in pEGFP-C2 vector (Clontech) using HindIII and BamHI restriction sites. A fusion between the N-terminalβ−1,4-galactosyltransferase1 and EGFP was used as a marker of the Golgi apparatus, farnesylated EGFP as a marker of plasma membrane (both constructs from Clontech). Untagged and 3xFLAG-tagged human CHIP for mammalian expression were constructed in pCMV-10 vector (Sigma-Aldrich). HSP70 was amplified from human cDNA and cloned into pcDNA3. 1 expression vector without a tag. HSP70 lacking the last amino acid (HSP70ΔD) was prepared by site-directed mutagenesis. Vectors of full-length CHIP, UbcH5a and mutant NQO1 for bacterial expression were prepared as described ([Martínez-Limón et al., 2016]). The TPR domain bacterial expression vector (TPR) was created by exchanging glutamate152 codon to a stop codon in the full-length CHIP vector. CHIP without TPR domain (ΔTPR) was cloned by deleting the sequence between serine25 and argininge130 by means of PCR. […]\nLiposomes were prepared by mixing 1,2-dioleoyl-sn-glycero-3-phosphocholine (DOPC) with indicated amount (wt/wt) of either 1,2-dipalmitoyl-sn-glycero-3-phosphate (phosphatidic acid) or (wt/wt) 1,2-dipalmitoyl-sn-glycero-3-phosphoinositol-4-phosphate (PI4P) in a 1.5 ml reaction tube (Eppendorf). […] The liposome suspension was subjected to five freeze-thaw cycles in liquid nitrogen to promote unilamellar vesicle formation, aliquoted in 200 µl and pulse-sonicated for 8 s at 45% output with MS72 sonotrode (Bandelin) to create a population of homogenously sized liposomes as determined using NanoSight (Malvern Instruments). […]\n2 mM liposomes were mixed with 2 µM recombinant protein in 50 µl reconstitution buffer. […] The pellet was resuspended in 10 µl reconstitution buffer, resolved by SDS-PAGE and analyzed by CBB staining. Images were acquired with ChemiDoc MP imaging system and quantified using Image Lab 5.0 software (both from Bio-Rad Laboratories). […]"}, "[7]": {"target": "T1, C-terminal Hsp70-interacting protein (CHIP), human recombinant full length, wild type, tag-free (human, UniProt Q9UNE7 1-303)", "T1 construct": "also called WT; wild-type CHIP; source: E. coli BL21, purified (Glutathion Sepharose 4B, PreScission protease, SEC on Superdex 200)", "T1 sequence (looked up)": "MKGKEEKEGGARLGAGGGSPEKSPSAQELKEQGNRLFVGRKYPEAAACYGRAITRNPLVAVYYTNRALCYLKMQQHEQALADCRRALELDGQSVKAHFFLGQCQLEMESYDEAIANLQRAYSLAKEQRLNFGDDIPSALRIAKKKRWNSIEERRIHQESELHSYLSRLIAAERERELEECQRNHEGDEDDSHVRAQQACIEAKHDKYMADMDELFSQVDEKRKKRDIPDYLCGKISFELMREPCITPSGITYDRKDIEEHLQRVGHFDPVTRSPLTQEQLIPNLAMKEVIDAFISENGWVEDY", "assay": "ITC; 10 µM protein in the cell, 200 µM GPTIEEVD peptide in the syringe, 25 injections of 8 µl every 3 min, 37°C, HSP70 buffer (25 mM HEPES KOH pH 7.5, 150 mM KCl, 5 mM MgCl2, 5% glycerol, 1 mM DTT); independent binding model", "settings": "both partners purified"}},
  "note": "“Also recorded” adds a separate entry of the source.",
  "data": [
    {"molecule": "C=CCNC1=C2C[C@@H](C)C[C@H](OC)[C@H](O)[C@@H](C)/C=C(\\C)[C@H](OC(N)=O)[C@@H](OC)/C=C\\C=C(/C)C(=O)NC(=CC1=O)C2=O", "note": "[17-AAG, 17-(Allylamino)−17-demethoxygeldanamycin]", "values": [
      {"measurement": "EGFP-CHIP relocalization to the plasma membrane", "setting": "[1]", "result": "mimic the heat shock effect in regard to CHIP relocalization to membranes in murine fibroblasts; also recorded: leads to the appearance of EGFP-CHIP, but not of EGFP, at the plasma membrane"}
    ]},
    {"molecule": "O=C(NCCN1CCC(n2c(=O)[nH]c3ccccc32)CC1)c1cc2cc(F)ccc2[nH]1", "note": "[FIPI]", "values": [
      {"measurement": "release of EGFP-CHIP-K30A from membranes into the cytosol", "setting": "[2]", "result": "efficiently released chaperone-free CHIP into the cytosol"}
    ]},
    {"molecule": "CCCCCCCCCCCCCCCC(=O)OC[C@H](COP(=O)(O)O[C@H]1[C@H](O)[C@@H](O)[C@H](OP(=O)(O)O)[C@@H](O)[C@H]1O)OC(=O)CCCCCCCCCCCCCCC", "note": "[PI4P, 1,2-dipalmitoyl-sn-glycero-3-phosphoinositol-4-phosphate]", "values": [
      {"measurement": "CHIP association with DOPC-liposomes (pelleting), 1% PI4P", "setting": "CHIP [3]; 1% PI4P, 2 mM liposomes, 2 µM CHIP, 30 min at 37°C, N = 3", "result": "weakly"},
      {"measurement": "CHIP association with DOPC-liposomes (pelleting), 5% PI4P", "setting": "CHIP [3]; 5% PI4P, 2 mM liposomes, 2 µM CHIP, 30 min at 37°C, ***p<0.001, N = 3", "result": "strongly enhanced association of liposomes with CHIP; also recorded: strongly enhance CHIP association with DOPC-liposomes"},
      {"measurement": "CHIP binding to phospholipid on lipid array", "setting": "CHIP [4]", "result": "especially PI4P"}
    ]},
    {"molecule": "N#Cc1ccc(COC[C@H]2O[C@@H](n3c(NCc4ccc(Cl)c(Cl)c4)nc4c(N)ncnc43)[C@H](O)[C@@H]2O)cc1", "note": "[VER-155008]", "values": [
      {"measurement": "EGFP-CHIP relocalization to the plasma membrane", "setting": "[1]", "result": "mimic the heat shock effect in regard to CHIP relocalization to membranes in murine fibroblasts; also recorded: leads to the appearance of EGFP-CHIP, but not of EGFP, at the plasma membrane"}
    ]},
    {"molecule": "C[C@@H](CN1CCC(n2c(=O)[nH]c3cc(Cl)ccc32)CC1)NC(=O)c1ccc2ccccc2c1", "note": "[VU0155069]", "values": [
      {"measurement": "release of EGFP-CHIP-K30A from membranes into the cytosol", "setting": "[2]", "result": "efficiently released chaperone-free CHIP into the cytosol"}
    ]},
    {"molecule": "O[As](O)O", "note": "[arsenite]", "values": [
      {"measurement": "CHIP relocalization to membranes", "setting": "[1]", "result": "does not induce CHIP relocalization to membranes in murine fibroblasts; also recorded: not induced by arsenite treatment"}
    ]},
    {"molecule": "C-terminal domain of HSP70, 260 amino acids (HSP70-C) (from UniProt P0DMV8 382-641) (domain or fragment)", "values": [
      {"measurement": "association of 2 µM CHIP with liposomes in the pelleting assay after preincubation with HSP70-C (1 µM, substoichiometric, to an equimolar amount), relative to the control without HSP70-C (% of the control)", "setting": "[5]", "result": 30}
    ]},
    {"molecule": "HSP70-C: last 260 amino acids of human HSPA1A, C-terminal domain of HSP70", "values": [
      {"measurement": "inhibition of CHIP interaction with liposomes", "setting": "CHIP [3]; 1 μM HSP70-C (substoichiometric), preincubated with 2 µM CHIP 20 min at 37°C, N = 4", "result": "efficiently prevented CHIP from interacting with liposomes"},
      {"measurement": "CHIP association with liposomes, % of control", "setting": "CHIP [3]; equimolar HSP70-C, preincubated with 2 µM CHIP 20 min at 37°C, N = 4", "result": "ca. 30%"},
      {"measurement": "CHIP binding to lipid arrays in the presence of HSP70-C", "setting": "CHIP [4]; ten-fold molar excess HSP70-C, 0.5 µg/ml CHIP, RT", "result": "blocks interaction of CHIP with phospholipids; also recorded: complete loss of binding to phosphatidylinositol monophosphates and only residual interaction with phosphatidic acid"}
    ]},
    {"molecule": "phosphatidylinositol-3,4,5-trisphosphate", "values": [
      {"measurement": "CHIP binding to phospholipid on lipid array", "setting": "CHIP [4]", "result": "no binding to phosphatidylinositol-3,4,5-trisphosphate detected"}
    ]},
    {"molecule": "B1", "values": [
      {"measurement": "binding capacity versus full-length CHIP", "setting": "[6]; 5% PA-containing DOPC-liposomes", "result": "still surpassed the full-length CHIP in binding capacity"},
      {"measurement": "binding efficiency relative to full-length protein", "setting": "[6]; isolated TPR domain, 20% PA-containing liposomes, 2 µM protein", "result": "ca. 160%"}
    ]},
    {"molecule": "B2", "values": [
      {"measurement": "Kd", "setting": "[7]", "result": 5, "unit": "µM"}
    ]}
  ]
}
